Data as given in ChEMBL document CHEMBL5046249, “Synthesis, biological evaluation and cellular localization study of fluorescent derivatives of Jiyuan Oridonin A” (Eur J Med Chem, 2022).

Tests used:
Type in all cases: functional, cell-based
HGC-27 = assay: Antiproliferative activity against human HGC-27 cells assessed as inhibition of cell growth measured after 72 hrs by SRB assay; settings: HGC-27, 72 h
PC-3 = assay: Antiproliferative activity against human PC-3 cells assessed as inhibition of cell growth measured after 72 hrs by SRB assay; settings: PC-3, 72 h
SW1990 = assay: Antiproliferative activity against human SW1990 cells assessed as inhibition of cell growth measured after 72 hrs by SRB assay; settings: SW1990, 72 h
TE-1 = assay: Antiproliferative activity against human TE-1 cells assessed as inhibition of cell growth measured after 72 hrs by SRB assay; settings: TE-1, 72 h
MGC-803 = assay: Antiproliferative activity against human MGC-803 cells assessed as inhibition of cell growth measured after 72 hrs by SRB assay; settings: MGC-803, 72 h

| Compound | IC50 (HGC-27) | IC50 (PC-3) | IC50 (SW1990) | IC50 (TE-1) | IC50 (MGC-803) |
| --- | --- | --- | --- | --- | --- |
| C=C1C(=O)[C@]23[C@H](O)[C@H]1C[C@H](O)[C@H]2[C@]12CCCC(C)(C)[C@H]1C[C@H]3O[C@H]2OCCc1cn(CCOCCN2C(=O)c3cccc4c(N5CCCCC5)ccc(c34)C2=O)nn1 | 4.14 µM | 0.99 µM | 1.18 µM | 1.31 µM | 2.13 µM |
| C=C1C(=O)[C@]23[C@H](O)[C@H]1C[C@H](O)[C@H]2[C@]12CCCC(C)(C)[C@H]1C[C@H]3O[C@H]2OCCCc1cn(CCOCCN2C(=O)c3cccc4c(N5CCCCC5)ccc(c34)C2=O)nn1 | 2.16 µM | 1.41 µM | 2.39 µM | 2.26 µM | 3.83 µM |
| C=C1C(=O)[C@]23[C@H](O)[C@H]1C[C@H](O)[C@H]2[C@]12CCCC(C)(C)[C@H]1C[C@H]3O[C@H]2OCCCCc1cn(CCCCCCN2C(=O)c3cccc4c(N5CCCCC5)ccc(c34)C2=O)nn1 | 2.09 µM | 2.2 µM | 2.87 µM | 4.33 µM | 2.11 µM |
| C=C1C(=O)[C@]23[C@H](O)[C@H]1C[C@H](O)[C@H]2[C@]12CCCC(C)(C)[C@H]1C[C@H]3O[C@H]2OCCCCCCc1cn(CCCCCCN2C(=O)c3cccc4c(N5CCCCC5)ccc(c34)C2=O)nn1 | 5.88 µM | 3 µM | 4.88 µM | 4.05 µM | 3.65 µM |
| C=C1C(=O)[C@]23[C@H](O)[C@H]1C[C@H](O)[C@H]2[C@]12CCCC(C)(C)[C@H]1C[C@H]3O[C@H]2OCCCCCCc1cn(CCOCCOCCOCCN2C(=O)c3cccc4c(N5CCCCC5)ccc(c34)C2=O)nn1 | 1.44 µM | 1.27 µM | 2.64 µM | 3.08 µM | 3.87 µM |
| C=C1C(=O)[C@]23[C@H](O)[C@H]1C[C@H](O)[C@H]2[C@]12CCCC(C)(C)[C@H]1C[C@H]3O[C@H]2OCCCCCCc1cn(CCOCCN2C(=O)c3cccc4c(N5CCCCC5)ccc(c34)C2=O)nn1 | 1.17 µM | 1.49 µM | 1.78 µM | 1.53 µM | 1.93 µM |
| C=C1C(=O)[C@]23[C@H](O)[C@H]1C[C@H](O)[C@H]2[C@]12CCCC(C)(C)[C@H]1C[C@H]3O[C@H]2OCCCCCc1cn(CCCCCN2C(=O)c3cccc4c(N5CCCCC5)ccc(c34)C2=O)nn1 | 1.67 µM | 0.78 µM | 2.79 µM | 4.67 µM | 2.44 µM |
| C=C1C(=O)[C@]23[C@H](O)[C@H]1C[C@H](O)[C@H]2[C@]12CCCC(C)(C)[C@H]1C[C@H]3O[C@H]2OCCCCCCc1cn(CCN2C(=O)c3cccc4c(N5CCCCC5)ccc(c34)C2=O)nn1 | 3.74 µM | 1.6 µM | 2.88 µM | 4.66 µM | 3.25 µM |
| C=C1C(=O)[C@]23[C@H](O)[C@H]1C[C@H](O)[C@H]2[C@]12CCCC(C)(C)[C@H]1C[C@H]3O[C@H]2OCCCc1cn(CCOCCOCCN2C(=O)c3cccc4c(N5CCCCC5)ccc(c34)C2=O)nn1 | 1.25 µM | 2.17 µM | 1.94 µM | 3.02 µM | 3.45 µM |
| C=C1C(=O)[C@]23[C@H](O)[C@H]1C[C@H](O)[C@H]2[C@]12CCCC(C)(C)[C@H]1C[C@H]3O[C@H]2OCCCCCc1cn(CCCCCCN2C(=O)c3cccc4c(N5CCCCC5)ccc(c34)C2=O)nn1 | 2.17 µM | 0.99 µM | 5.02 µM | 10.1 µM | 5.88 µM |
| [N-]=[N+]=NCCCCCCN1C(=O)c2cccc3c(N4CCCCC4)ccc(c23)C1=O | > 32 µM | > 32 µM | > 32 µM | > 32 µM | > 32 µM |
| [N-]=[N+]=NCCCCCN1C(=O)c2cccc3c(N4CCCCC4)ccc(c23)C1=O | > 32 µM | > 32 µM | > 32 µM | > 32 µM | > 32 µM |
| [N-]=[N+]=NCCOCCOCCOCCN1C(=O)c2cccc3c(N4CCCCC4)ccc(c23)C1=O | > 32 µM | > 32 µM | > 32 µM | > 32 µM | > 32 µM |
| C=C1C(=O)[C@]23[C@H](O)[C@H]1C[C@H](O)[C@H]2[C@]12CCCC(C)(C)[C@H]1C[C@H]3O[C@H]2OCCCCCCc1cn(CCCCN2C(=O)c3cccc4c(N5CCCCC5)ccc(c34)C2=O)nn1 | 2.29 µM | 6.16 µM | 4.52 µM | 8.82 µM | 4.59 µM |
| C=C1C(=O)[C@]23[C@H](O)[C@H]1C[C@H](O)[C@H]2[C@]12CCCC(C)(C)[C@H]1C[C@H]3O[C@H]2OCCCCCc1cn(CCN2C(=O)c3cccc4c(N5CCCCC5)ccc(c34)C2=O)nn1 | 4.41 µM | 2.47 µM | 4.63 µM | 5.36 µM | 2.72 µM |
